Key:
Assay in all cases: relative viability (nuclei count vs DMSO), 5 days (fraction); higher = more cells survive
JZL-184 + Pemetrexed = compound: C1CN(CCC1C(C2=CC3=C(C=C2)OCO3)(C4=CC5=C(C=C4)OCO5)O)C(=O)OC6=CC=C(C=C6)[N+](=O)[O-] [JZL-184] + Nc1nc2[nH]cc(CCc3ccc(C(=O)N[C@@H](CCC(=O)O)C(=O)O)cc3)c2c(=O)[nH]1 [Pemetrexed] (partner 0.2 µM)
How it was run: (§1)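 The day after seeding in 1536-well plates, lung cancer cell lines were treated by pin tool with a single drug, or with a fixed anchor-drug dose together with five library-drug doses (not always all listed) in √10 steps. After 5 days, a combined fix-and-stain solution (final 0.05% Triton X-100, 1% formaldehyde, 1 ug/ml Hoechst) was added. Nuclei counted on 4× images gave relative viability as treated counts over vehicle counts, reported as the median of duplicate plates.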

JZL-184 + Lapatinib = compound: C1CN(CCC1C(C2=CC3=C(C=C2)OCO3)(C4=CC5=C(C=C4)OCO5)O)C(=O)OC6=CC=C(C=C6)[N+](=O)[O-] [JZL-184] + CS(=O)(=O)CCNCc1ccc(-c2ccc3ncnc(Nc4ccc(OCc5cccc(F)c5)c(Cl)c4)c3c2)o1 [Lapatinib] (partner 2 µM)
How it was run: as §1

JZL-184 + Phenformin = compound: C1CN(CCC1C(C2=CC3=C(C=C2)OCO3)(C4=CC5=C(C=C4)OCO5)O)C(=O)OC6=CC=C(C=C6)[N+](=O)[O-] [JZL-184] + N=C(N)NC(=N)NCCc1ccccc1 [Phenformin] (partner 250 µM)
How it was run: as §1

JZL-184 + Olaparib = compound: C1CN(CCC1C(C2=CC3=C(C=C2)OCO3)(C4=CC5=C(C=C4)OCO5)O)C(=O)OC6=CC=C(C=C6)[N+](=O)[O-] [JZL-184] + O=C(c1cc(Cc2n[nH]c(=O)c3ccccc23)ccc1F)N1CCN(C(=O)C2CC2)CC1 [Olaparib] (partner 8 µM)
How it was run: as §1

JZL-184 + Palbociclib = compound: C1CN(CCC1C(C2=CC3=C(C=C2)OCO3)(C4=CC5=C(C=C4)OCO5)O)C(=O)OC6=CC=C(C=C6)[N+](=O)[O-] [JZL-184] + CC(=O)c1c(C)c2cnc(Nc3ccc(N4CCNCC4)cn3)nc2n(C2CCCC2)c1=O [Palbociclib] (partner 0.5 µM)
How it was run: as §1

| Cell Line | relative viability (JZL-184 + Pemetrexed; first compound 0.04 µM) | relative viability (JZL-184 + Pemetrexed; first compound 0.4 µM) | relative viability (JZL-184 + Pemetrexed; first compound 1.265 µM) | relative viability (JZL-184 + Pemetrexed; first compound 4 µM) | relative viability (JZL-184 + Lapatinib; first compound 0.04 µM) | relative viability (JZL-184 + Lapatinib; first compound 0.4 µM) | relative viability (JZL-184 + Lapatinib; first compound 1.265 µM) | relative viability (JZL-184 + Lapatinib; first compound 4 µM) | relative viability (JZL-184 + Phenformin; first compound 0.04 µM) | relative viability (JZL-184 + Phenformin; first compound 0.4 µM) | relative viability (JZL-184 + Phenformin; first compound 1.265 µM) | relative viability (JZL-184 + Phenformin; first compound 4 µM) | relative viability (JZL-184 + Olaparib; first compound 0.04 µM) | relative viability (JZL-184 + Olaparib; first compound 0.4 µM) | relative viability (JZL-184 + Olaparib; first compound 1.265 µM) | relative viability (JZL-184 + Olaparib; first compound 4 µM) | relative viability (JZL-184 + Palbociclib; first compound 0.04 µM) | relative viability (JZL-184 + Palbociclib; first compound 0.4 µM) | relative viability (JZL-184 + Palbociclib; first compound 1.265 µM) | relative viability (JZL-184 + Palbociclib; first compound 4 µM) |
| --- | --- | --- | --- | --- | --- | --- | --- | --- | --- | --- | --- | --- | --- | --- | --- | --- | --- | --- | --- | --- |
| LK-2 | 0.235 | 0.2 | 0.183 | 0.277 | 1.24 | 0.878 | 1.04 | 0.972 | 0.374 | 0.676 | 0.678 | 0.416 | 0.777 | 0.661 | 0.939 | 0.835 | 0.817 | 0.514 | 0.795 | 0.887 |
| LOU-NH91 | 0.389 | 0.334 | 0.381 | 0.394 | 0.783 | 0.741 | 0.845 | 0.727 | 0.795 | 0.626 | 0.774 | 0.708 | 1 | 0.902 | 0.957 | 0.889 | 0.524 | 0.509 | 0.558 | 0.448 |
| NCI-H441 | 0.277 | 0.248 | 0.239 | 0.285 | – | – | – | – | 0.818 | 0.802 | 0.914 | 0.923 | 0.714 | 0.473 | 0.659 | 0.463 | 0.207 | 0.229 | 0.238 | 0.236 |
| NCI-H522 | 1.23 | 0.981 | 1.02 | 1.16 | – | – | – | – | 0.606 | 0.667 | 0.59 | 0.635 | 0.709 | 0.62 | 0.648 | 0.574 | 1.23 | 0.936 | 1.13 | 0.903 |

Reference: the supplement of paper PMC10307832
